Laboratory results published in ChEMBL document CHEMBL3886525, “Pyrazolo[3,4-c]pyridine compounds and methods of use” (2016).

Molecular target: Serine/threonine-protein kinase pim-1 (Homo sapiens, UniProt P11309)
Experiment: A fluorescent-labeled Pim-specific peptide substrate, was custom synthesized by American Peptide Company (Sunnyvale, Calif.). Reaction Buffer contained 10 mM HEPES, pH 7.2, 10 mM MgCl2, 0.01% Tween 20, 2 mM DTT.

Serine/threonine-protein kinase pim-1, sequence (P11309 whole entry): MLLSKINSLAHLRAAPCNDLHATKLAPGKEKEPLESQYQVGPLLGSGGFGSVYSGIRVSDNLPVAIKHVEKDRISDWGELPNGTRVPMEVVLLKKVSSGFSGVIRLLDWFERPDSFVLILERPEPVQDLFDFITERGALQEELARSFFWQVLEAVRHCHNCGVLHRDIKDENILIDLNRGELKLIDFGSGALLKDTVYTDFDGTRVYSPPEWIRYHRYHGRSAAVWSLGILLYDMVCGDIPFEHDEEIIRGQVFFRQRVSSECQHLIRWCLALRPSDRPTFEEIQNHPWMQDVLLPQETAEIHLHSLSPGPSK

Structure (SMILES) | Ki [nM]
c1ccc(-c2n[nH]c3cnc(-c4cccnc4)cc23)cc1 | 9.65
Cc1n[nH]c2cnc(-c3cccc(F)c3)cc12 | 2200
CCn1cc(-c2cc3c(-c4ccc(=O)n(CC5(C(N)=O)CC5)c4)n[nH]c3cn2)cn1 | 1.41
Fc1ccccc1-c1n[nH]c2cnc(-c3cccnc3)cc12 | 122
c1cncc(-c2cc3c(-c4cccc(N5CCOCC5)n4)n[nH]c3cn2)c1 | 0.262
c1cncc(-c2cc3c(-c4cccc(N5CCCCC5)n4)n[nH]c3cn2)c1 | 0.415
N[C@@H]1CCN(c2nc(-c3n[nH]c4cnc(-c5cccnc5)cc34)ccc2Br)C1 | 0.118
